Measurements as given in patent US20020151712A1, “3-pyrrolidinyloxy-3'-pyridyl ether compounds useful for controlling chemical synaptic transmission” (priority 1999, published 2002).
Counter-ions that a name gives are not always drawn.

Tested on: mice
Test: mouse hot plate paradigm (analgesia)
Type: in vivo
Settings: mouse hot plate 55° C., intraperitoneal, dosed 30 minutes prior to testing, increase in tenth jump latency relative to control
Experimental: An in vivo protocol was utilized to determine the effectiveness of nicotinic acetylcholine receptor ligands as analgesic agents in the mouse hot plate paradigm. Separate groups of mice, (n=8/group) were utilized for each dose group. All drugs were administered by the intraperitoneal route of administration. Test drugs were dissolved in water to make a 6.2 mM stock solution. Animals were dosed with this solution (10 mL/kg body weight) for a 62 micromol/kg dose. Lower doses were administered similarly, following serial dilution of the stock solution in half-log increments. Animals were dosed 30 minutes prior to testing in the hot plate. The hot-plate utilized was an automated analgesia monitor (Model #AHP16AN, Omnitech Electronics, Inc. of Columbus, Ohio). The temperature of the hot plate was maintained at 55° C. and a cut-off time of 180 seconds was utilized. Latency until the tenth jump was recorded as the dependent measure. An increase in the tenth jump latency relative to the control was considered an effect.

| Structure (SMILES) | minimally effective dose (MED), Dosage [µmol/kg] |
| --- | --- |
| Clc1ncc(OCC2CCNC2)cc1Br (stereo not drawn) [Example 25, 3-Bromo-2-chloro-5-(3-pyrrolidinylmethoxy)pyridine toluenesulfonate] | 6.2 |
| CN1CCC(COc2cnc(Cl)c(Br)c2)C1 (stereo not drawn) [Example 26, 3-Bromo-2-chloro-5-(1-methyl-3-pyrrolidinylmethoxy) pyridine toluenesulfonate] | 62 |
| Cc1ccc(S(=O)(=O)O)cc1.Cc1cncc(OCC2CCNC2)c1 (stereo not drawn) [Example 27, 5-methyl-3-(3-pyrrolidinylmethoxy)pyridine tosylate] | 19 |
| Cc1ccc(OC2CCCCNC2)cn1 (stereo not drawn) [Example 29, 3-(6-Methylpyridinyl-3-oxy)perhydroazepine dihydrochloride] | 62 |

Biological target: neuronal nicotinic acetylcholine receptors (Rattus norvegicus, UniProt P09483+P12390)
Test: [3H]-cytisine binding to neuronal nicotinic acetylcholine receptors, crude synaptic membranes from whole rat brain
Settings: [3H]-CYT 1.25 nM, 60 minutes at 4° C., Ki from IC50 by Cheng and Prusoff correction
Experimental: The in vitro protocols for determination of nicotinic acetylcholine channel receptor binding potencies of ligands was determined as follows.
Binding of [^3H]-cytisine ([^3H]-CYT) to neuronal nicotinic acetylcholine receptors was accomplished using crude synaptic membrane preparations from whole rat brain (Pabreza et al., Molecular Pharmacol., 1990, v. 39, p. 9). Washed membranes were stored at −80° C. prior to use. Frozen aliquots were slowly thawed and resuspended in 20 volumes of buffer (containing: 120 mM NaCl, 5 mM KCl, 2 mM MgCl2, 2 mM CaCl2 and 50 mM Tris-Cl, pH 7.4 at 4° C.). After centrifuging at 20,000×g for 15 minutes, the pellets were resuspended in 30 volumes of buffer.
The test compounds were dissolved in water to make 10 mM stock solutions. […]
Homogenate (containing 125-150 μg protein) was added to triplicate tubes containing the range of concentrations of test compound described above and [^3H]-CYT (1.25 nM) in a final volume of 500 μl. […] The filters are counted in 4 mL of Ecolume® (ICN). Nonspecific binding was determined in the presence of 10 μM (−)-nicotine and values were expressed as a percentage of total binding. IC50 values were determined with a four-parameter non-linear regression and IC50 values were converted to Ki values using the Cheng and Prusoff correction (Ki=IC50/(1+[ligand]/Kd of ligand).

Chain of neuronal nicotinic acetylcholine receptors (P09483 31-630): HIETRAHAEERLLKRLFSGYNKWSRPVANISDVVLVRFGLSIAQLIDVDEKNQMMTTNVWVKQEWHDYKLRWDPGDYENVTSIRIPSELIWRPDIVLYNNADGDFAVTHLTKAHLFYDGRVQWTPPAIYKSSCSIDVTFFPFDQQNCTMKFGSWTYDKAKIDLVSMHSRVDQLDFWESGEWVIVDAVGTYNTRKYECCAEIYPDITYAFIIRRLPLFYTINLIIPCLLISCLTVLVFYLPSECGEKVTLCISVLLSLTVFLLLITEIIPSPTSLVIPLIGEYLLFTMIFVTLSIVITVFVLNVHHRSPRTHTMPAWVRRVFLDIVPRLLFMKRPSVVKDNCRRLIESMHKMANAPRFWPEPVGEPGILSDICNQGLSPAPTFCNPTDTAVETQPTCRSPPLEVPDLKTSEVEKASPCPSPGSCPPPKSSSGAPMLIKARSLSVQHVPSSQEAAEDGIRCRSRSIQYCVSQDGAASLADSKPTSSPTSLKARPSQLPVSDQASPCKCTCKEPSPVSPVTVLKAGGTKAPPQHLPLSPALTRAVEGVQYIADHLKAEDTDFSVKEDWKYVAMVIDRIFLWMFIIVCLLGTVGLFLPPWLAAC
Chain of neuronal nicotinic acetylcholine receptors (P12390 25-500): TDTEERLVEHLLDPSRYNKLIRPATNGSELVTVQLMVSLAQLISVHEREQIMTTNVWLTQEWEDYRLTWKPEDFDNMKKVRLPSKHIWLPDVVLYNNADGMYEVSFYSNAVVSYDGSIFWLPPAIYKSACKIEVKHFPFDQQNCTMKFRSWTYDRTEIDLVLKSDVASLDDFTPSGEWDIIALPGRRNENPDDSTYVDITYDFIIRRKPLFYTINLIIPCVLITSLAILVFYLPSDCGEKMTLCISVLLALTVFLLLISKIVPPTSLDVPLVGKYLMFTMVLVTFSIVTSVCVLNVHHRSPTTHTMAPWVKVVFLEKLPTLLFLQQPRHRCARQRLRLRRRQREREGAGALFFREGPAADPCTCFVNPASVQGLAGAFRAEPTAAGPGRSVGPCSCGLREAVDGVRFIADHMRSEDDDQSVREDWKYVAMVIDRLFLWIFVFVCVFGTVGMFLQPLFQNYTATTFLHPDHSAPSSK

| Structure (SMILES) | Ki [nM] |
| --- | --- |
| Clc1ncc(OC[C@@H]2CCNC2)cc1Br [Example 35, 3-Bromo-2-chloro-5-(3-(R)-pyrrolidinylmethoxy)pyridine 4-methyl benzenesulfonate] | 0.021 |

Tested on: not given
Test: not given
Settings: not given

| Structure (SMILES) | melting point |
| --- | --- |
| CC(C)(C)C=CC=Cc1cncc(O[C@H]2CCNC2)c1 (as salt: hydrochloride) [Example 7, 3-(3-(S)-Pyrrolidinyloxy-5-(5,5-dimethylhexadienyl)pyridine hydrochloride] | 148 °C (dec.) |
| CN1CC[C@@H](Oc2cncc(C=Cc3ccncc3)c2)C1.Cl [Example 5, 3-(1-Methyl-3-(R)-pyrrolidinyloxy)-5-(2-(4-pyridyl)ethenyl)pyridine hydrochloride] | 88 to 90 °C |
| Clc1ncc(OCC2CCNC2)cc1Br (stereo not drawn) (as salt: toluenesulfonate) [Example 25, 3-Bromo-2-chloro-5-(3-pyrrolidinylmethoxy)pyridine toluenesulfonate] | 105 to 107 °C |
| CCCCCCC#Cc1cncc(O[C@H]2CCNC2)c1.Cl [Example 8, 3-(3-(S)-pyrrolidinyloxy)-5-(1-octynyl)pyridine hydrochloride] | 66 to 68 °C |
| Cl.c1ncc(-c2cncc(O[C@H]3CCNC3)c2)cn1 [Example 11, 3-(3-(S)-pyrrolidinyloxy)-5-(5-pyrimidyl)pyridine hydrochloride] | 60 to 62 °C |
| CCCCCCC#Cc1cncc(O[C@@H]2CCN(C)C2)c1.Cl [Example 10, 3-(1-N-Methyl-3-(R)-pyrrolidinyloxy)-5-(1-octynyl)pyridine hydrochloride] | 133 to 135 °C |
| CN1CC[C@H](Oc2cnc(Cl)c(C=Cc3ccncc3)c2)C1.Cl | 106 to 108 °C |
| Cl.c1ncc(-c2cncc(O[C@@H]3CCNC3)c2)cn1 [Example 13, 3-(3-(R)-Pyrrolidinyloxy)-5-(5-pyrimidinyl)pyridine hydrochloride] | 67 to 69 °C |

Continued, values first:

| melting point | Structure (SMILES) |
| --- | --- |
| 60 °C (dec.) | Cl.c1ccc(-c2cncc(O[C@H]3CCNC3)c2)cc1 [Example 15, 3-(3-(S)-Pyrrolidinyloxy)-5-phenylpyridine hydrochloride] |
| 75 to 77 °C | CN1CCC(COc2ccc(Cl)nc2)C1 (stereo not drawn) (as salt: toluenesulfonate) [Example 32, 2-Chloro-5-(1-methylpyrrolidinyl-3-methoxy)pyridine p-toluenesulfonate] |
| 180 °C (dec.) | CN1CC[C@H](Oc2cnc(Cl)c(Br)c2)C1.Cl [Example 23, 3-(1-N-Methyl-3-(S)-pyrrolidinyloxy)-5-bromo-6-chloropyridine hydrochloride] |
| 208 °C (dec.) | Cl.Nc1cccc(-c2cncc(O[C@H]3CCNC3)c2)c1 [Example 14, 3-(3-(S)-Pyrrolidinyloxy)-5-(3-aminophenyl)pyridine hydrochloride] |
| 82 to 84 °C | Clc1cc(OCC2CCNC2)cnc1Cl (stereo not drawn) (as salt: toluenesulfonate) [Example 33, 2,3-Dichloro-5-(pyrrolidinyl-3-methoxy)pyridine p-toluenesulfonate] |
| 178 to 180 °C | Cl.Clc1ncc(O[C@H]2CCNC2)cc1Br [Example 22, 3-(3-(S)-Pyrrolidinyloxy)-5-bromo-6-chloropyridine hydrochloride] |
| 121 to 122 °C | Fc1ccc(OC2CCCCNC2)cn1 (stereo not drawn) (as salt: hydrochloride) [Example 30, 3-(6-Fluoropyridinyl-3-oxy)perhydroazepine hydrochloride] |
| 201 to 203 °C | c1csc(-c2cncc(O[C@@H]3CCNC3)c2)c1 (as salt: hydrochloride) [Example 19, 3-(3-(R)-Pyrrolidinyloxy)-5-thienylpyridine hydrochloride] |
| 65 °C (dec.) | Cl.Clc1ccc(-c2cncc(O[C@H]3CCNC3)c2)cc1 [Example 21, 3-(3-(S)-Pyrrolidinyloxy)-5-(4-chlorophenyl)pyridine hydrochloride] |
| 88 to 90 °C | CN1CC[C@H](Oc2cncc(-c3ccccc3)c2)C1.Cl [Example 16, 3-(1-Methyl-3-(S)-pyrrolidinyloxy)-5-phenylpyridine hydrochloride] |
| 60 °C (dec.) | Cl.c1ccc(-c2cncc(O[C@@H]3CCNC3)c2)cc1 [Example 17, 3-(3-(R)-Pyrrolidinyloxy)-5-phenylpyridine hydrochloride] |
